Measurements from patent US7491827B2, “Aryl sulfonamides useful as inhibitors of chemokine receptor activity” (Millennium Pharmaceuticals, Inc., priority 2003, dated 2009).

molecular target: T1, cloned human CCR8 receptor stably expressed in L1.2 cells (Homo sapiens, UniProt P51685); assay: whole cell binding screen: inhibition of biotinylated human I309 binding to CCR8 (FMAT 8100 HTS); details: Ki of compounds to inhibit I-309 binding to CCR8, L1.2/hCCR8 cells, biotinylated human I-309, 10 point concentration response starting at 10 μM
T1 construct: expressed in transfected cells
Method in brief: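 L1.2 murine pre-B cells stably expressing human CCR8 (4.0×10^5 cells/mL) in HBSS/HEPES/fatty-acid-free BSA/azide buffer were mixed with biotinylated human I309 and compounds for 0.5 h, read by FMAT fluorescence. 10-point curves from 10 μM final; percent inhibition normalized to no-inhibitor and 100 nM unlabeled I309 controls.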

T1 sequence (P51685 whole entry): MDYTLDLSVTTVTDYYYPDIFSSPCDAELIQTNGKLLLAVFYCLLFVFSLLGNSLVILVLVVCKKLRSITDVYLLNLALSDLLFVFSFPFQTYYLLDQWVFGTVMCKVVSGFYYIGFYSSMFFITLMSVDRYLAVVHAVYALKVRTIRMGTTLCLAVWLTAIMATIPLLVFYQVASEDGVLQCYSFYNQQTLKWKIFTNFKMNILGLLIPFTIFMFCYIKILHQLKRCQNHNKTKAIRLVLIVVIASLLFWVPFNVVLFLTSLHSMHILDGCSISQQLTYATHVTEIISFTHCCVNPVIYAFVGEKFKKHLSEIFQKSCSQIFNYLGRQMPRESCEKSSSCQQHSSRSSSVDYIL

Ki, < 500 nM:
CCOC(=O)N1CCC(NS(=O)(=O)c2ccc(C(=O)NC3CCCCC3)c3ccccc23)CC1 [Compound F-3, 4-(4-Cyclohexylcarbamoyl-naphthalene-1-sulfonylamino)-piperidine-1-carboxylic acid ethyl ester]
CCOC(=O)N1CCC(NS(=O)(=O)c2ccc(NC(=O)N3CCCCC3)c3ccccc23)CC1 [Compound B-14, 4-{4-[(Piperidine-1-carbonyl)-amino]-naphthalene-1-sulfonylamino}-piperidine-1-carboxylic acid ethyl ester]

same assay, conditions: L1.2/hCCR8 cells, biotinylated human I-309, 10 point concentration response starting at 10 μM; read-out: Ki of compounds to inhibit I-309 binding to CCR8

Ki, < 500 nM:
O=S(=O)(NC1CCCCC1)c1ccc(CNC2CCCCC2)c2ccccc12 [Compound G-31, 4-Cyclohexylaminomethyl-naphthalene-1-sulfonic acid cyclohexylamide]
CCNC(=O)N1CCC(NS(=O)(=O)c2ccc(NC(=O)c3ccccc3)c3ccccc23)CC1 [Compound C-7, 4-(4-Benzoylamino-naphthalene-1-sulfonylamino)-piperidine-1-carboxylic acid ethylamide]
Cc1ccccc1C(=O)Nc1ccc(S(=O)(=O)N[C@H]2CCN(C(=O)C3CCCN3)C[C@H]2C)c2cccnc12 (stereo in doubt) [Compound J-38, (3R, 4S)-2-Methyl-N-{5-[3-methyl-1-((R)pyrrolidine-2-carbonyl)-piperidin-4-ylsulfamoyl]-quinolin-8-yl}-benzamide]
Cc1ccccc1C(=O)Nc1ccc(S(=O)(=O)N[C@H]2CCNC[C@@H]2C)c2ccccc12 (racemic) [Compound C-14, (±)-trans-2-MethylN-[4-(3-methyl-piperidin-4-ylsulfamoyl)-naphthalen-1-yl]-benzamide]
Cc1ccccc1C(=O)Nc1ccc(S(=O)(=O)NC2CCN(c3ncccn3)CC2)c2ccccc12 [Compound C-57, 2-Methyl-N-[4-(1-pyrimidin-2-yl-piperidin-4-ylsulfamoyl)-naphthalen-1-yl]-benzamide]
Cc1ccccc1C(=O)Nc1ccc(S(=O)(=O)NC2(C)CCN(C(=O)OC(C)C)CC2)c2ccccc12 [Compound C-26, 4-Methyl-4-[4-(2-methyl-benzoylaminno)-naphthalene-1-sulfonylamino]-piperidine-1-carboxylic acid isopropyl ester]
CCOC(=O)N1CCC(NS(=O)(=O)c2ccc(C(=O)N(C)C3CCCCC3)c3ccccc23)CC1 [Compound F-27, 4-[4-(Cyclohexyl-methyl-carbamoyl)-naphthalene-1-sulfonylamino]-piperidine-1-carboxylic acid ethyl ester]
CCCC(=O)N1CCC(NS(=O)(=O)c2ccc(C(=O)Nc3ccccc3C)c3ccccc23)CC1 [Compound F-9, 4-(1-Butyryl-piperidin-4-ylsulfamoyl)-naphthalene-1-carboxylic acid o-tolylamide]
CCOC(=O)N1CCC(NS(=O)(=O)c2cccc3c(NC(=O)c4cc5ccccc5s4)cccc23)CC1 [Compound H-18, 4-{5-[(Benzo[b]thiophene-2-carbonyl)-amino]-naphthalene-1-suffonylamino}-piperidine-1-carboxylic acid ethyl ester]
CC(=O)N1CC[C@H](NS(=O)(=O)c2ccc(NC(=O)c3ccccc3C)c3ccccc23)[C@H](C)C1 (racemic) [Compound C-30, (±)-cis-N-[4-(1-Acetl-3-methyl-piperidin-4-ylsulfamoyl)-naphthalen-1-yl]-2-methyl-benzamide]
Cc1ccccc1C(=O)Nc1ccc(S(=O)(=O)NC2CCN(C(=O)[C@H](C)N)CC2)c2ccccc12 [Compound C-120, (S)-N-{4-[1-(2-Amino-propionyl)-piperidin-4-ylsulfamoyl]-naphthalen-1-yl}-2-methyl-benzamide]
Cc1ccccc1C(=O)Nc1ccc(S(=O)(=O)NC2[C@@H](C)CN(C(=O)N(C)C)C[C@@H]2C)c2ccccc12 (racemic) [Compound C-65, (±)-(cisstrans)-3,5-Dimethyl-4-[4-(2-methyl-benzoylamino)-naphthalene-1-sulfonylainno]-piperidine-1-carboxylic acid dimethylamide]
CCCC(=O)N1CCC(C)(NS(=O)(=O)c2ccc(NC(=O)c3ccccc3C)c3ccccc23)CC1 [Compound C-27, N-[4-(1-Butyryl-4-methyl-piperidin-4-ylsulfamoyl)-naphthalen-1-yl]-2-methyl-benzamide]
CCC(=O)N1CCC(NS(=O)(=O)c2ccc(NC(=O)c3ccccc3Cl)c3ccccc23)CC1 [Compound C-103, 2-Chloro-N-[4-(1-propionyl-piperidin-4-ylsuffamoyl)-naphthalen-1-yl]-benzamide]
Cc1ccccc1C(=O)Nc1ccc(S(=O)(=O)NC2CCN(C(=O)OC(C)C)CC2(C)C)c2ccccc12 (racemic) [Compound C-22, (±)-3,3-Dimethyl-4-[4-(2-methyl-benzoylamino)-naphthalene-1-sulfonylamino]-piperidine-1-carboxylic acid isopropyl ester]
CCOC(=O)N1CCC(NS(=O)(=O)c2ccc(NC(=O)c3ccccc3C)c3c2CCCC3)C1 (racemic) [Compound E-33, (±)-3-[4-(2-Methyl-benzoylamino)-5,6,7,8-tetrahydro-naphthalene-1-sulfonylamino]-pyrrolidine-1-carboxylic acid ethyl ester]
CCCC(=O)N1CCC(NS(=O)(=O)c2ccc(NC(=O)c3c(F)cccc3C(F)(F)F)c3ccccc23)CC1 [Compound C-110, N-[4-(1-Butyryl-piperidin-4-ylsulfamoyl)-naphthalen-1-yl]-2-fluoro-6-trifluoromethyl-benzamide]
O=C(Nc1cccc2c(S(=O)(=O)NC3CCN(C(=O)N4CCOCC4)CC3)cccc12)c1ccccc1 [Compound H-10]
COc1ccc(NS(=O)(=O)c2ccc(NC(=O)Cc3ccccc3)c3ccccc23)cc1 [Compound B-7, N-[4-(4-Methoxy-phenylsulfamoyl)-naphthalen-1-yl]-2-phenyl-acetamide]
O=C(Nc1ccc(S(=O)(=O)NC2CCCCC2)c2c1CCCC2)c1ccccc1 [Compound E-2, N-(4-Cyclohexylsulfamoyl-5,6,7,8-tetrahydro-naphthalen-1-yl)-benzamide]

Ki, < 30000 nM:
CCOC(=O)[C@@H]1CN(Cc2ccccc2)CC[C@@H]1NS(=O)(=O)c1ccc(NC(=O)c2ccccc2C)c2ccccc12 (racemic) [Compound A-47, (±)-(cis)-1-Benzyl-4-[4-(2-methyl-benzoylamino)-naphthalene-1-sulfonylamino]-piperidine-3-carboxylic acid ethyl ester]
O=C(Nc1ccccc1Cl)c1ccc(S(=O)(=O)NC2CCNCC2)c2ccccc12 [Compound F-17, 4-(Piperidin-4-ylsulfamoyl)-naphthalene-1-carboxylic acid (2-chloro-phenyl)-amide]
CC(C)(C)OC(=O)N1CCC(NS(=O)(=O)c2ccc(NC(=O)C3CCC3)c3ccccc23)CC1 [Compound B-18, 4-[4-(Cyclobutanecarbonyl-amino)-naphthalene-1-sulfonylamino]-piperidine-1-carboxylic acid tert-butyl ester]
O=C(Nc1ccc(S(=O)(=O)Nc2ccc(-c3ccccc3)cc2)c2ccccc12)c1ccccc1 [Compound A-29]
Cc1ccccc1C(=O)Nc1cc(S(=O)(=O)NC2CCN(C(=O)C(C)C)CC2)cc2c1CCCC2 [Compound H-53, N-[3-(1-Isobutyryl-piperidin-4-ylsulfamoyl)-5,6,7,8-tetrahydro-naphthalen-1-yl]-2-methyl-benzamide]
CN(C)CCNS(=O)(=O)c1ccc(NC(=O)c2ccccc2)c2ccccc12 [Compound A-9, N-[4-(2-Dimethylamino-ethylsulfamoyl)-naphthalen-1-yl]-benzamide]

Ki, < 1000 nM:
CCCC(=O)N1C[C@@H](C)[C@@H](NS(=O)(=O)c2ccc(NC(=O)c3ccccc3C)c3ccccc23)[C@@H](C)C1 [Compound C-69, (±)-(cisscis)-N-[4-(1-Butyryl-3,5-dimethyl-piperidin-4-ylsulfamoyl)-naphthalen-1-yl]-2-methyl-benzamide]
Cc1ccccc1C(=O)Nc1ccc(S(=O)(=O)N[C@@H]2[C@H](C)CN(C(=O)N(C)C)C[C@@H]2C)c2ccccc12 [Compound C-71, (±)-(cis,cis)-3,5-Dimethyl-4-[4-(2-methyl-benzoylamino)-naphthalene-1-sulfonylamino]-piperidine-1-carboxylic acid dimethylamide]
CCCC(=O)N1CCC(NS(=O)(=O)c2ccc(C(=O)NC3CCOCC3)c3ccccc23)CC1 [Compound F-24, 4-(1-Butyryl-piperidin-4-ylsulfamoyl)-naphthalene-1-carboxylic acid (tetrahydro-pyran-4-yl)-amide]
COc1ccc(NS(=O)(=O)c2ccc(NC(=O)c3ccncc3)c3ccccc23)cc1 [Compound B-8, N-[4-(4-Methoxy-phenylsulfamoyl)-naphthalen-1-yl]-isonicotinamide]
CCOC(=O)N1CCC(NS(=O)(=O)c2cccc3c(C(=O)NC4CCCCC4)cccc23)CC1 [Compound H-25, 4-(5-Cyclohexylcarbamoyl-naphthalene-1-suffonylamino)-piperidine-1-carboxylic acid ethyl ester]
Cc1ccccc1C(=O)Nc1ccc(S(=O)(=O)N[C@@H]2CCN(Cc3ccccc3)C[C@H]2C)c2c1CCC2 (racemic) [Compound H-75, (±)-trans-N-[7-(1-Benzyl-3-methyl-piperidin-4-ylsulfamoyl)-indan-4-yl]-2-methyl-benzamide]
